According to ChEMBL document CHEMBL1649173, “Single-dose escalation and multiple-dose safety, tolerability, and pharmacokinetics of IDX899, a candidate human immunodeficiency virus type 1 nonnucleoside reverse transcriptase inhibitor, in healthy subjects” (Antimicrob Agents Chemother, 2009):

Columns and labels:
[1] = AUC (0 to infinity) in fed state healthy human at 400 mg, po administered as single dose; type: ADME, organism-based; parameters: dose 400 mg, route oral, time infinity; conditions: plasma
[2] = Apparent total plasma clearance in fed state healthy human at 200 mg, po administered as single dose; type: ADME, organism-based
[3] = tested on: Homo sapiens; assay: Toxicity in healthy human assessed as occurrence of head ache at 50 to 1200 mg, po administered as single dose; type: organism-based; conditions: in vivo
[4] = Apparent total plasma clearance in fasted state healthy human at 100 mg, po administered as single dose; type: ADME, organism-based
[5] = Trough plasma concentration in healthy human at 400 mg, po bid after 1 day; type: ADME, organism-based; conditions: read-out: Cmin
[6] = organism: Homo sapiens; assay: Protein binding in human; type: ADME, organism-based; conditions: in vivo
[7] = Cmax in healthy human at 800 mg, po qd after 1 day; type: ADME, organism-based; parameters: dose 800 mg, route oral; conditions: in vivo
[8] = Half life in fed state female healthy human at 400 mg, po administered as single dose; type: ADME, organism-based; conditions: in vivo
[9] = Trough plasma concentration in healthy human at 400 mg, po bid after 7 days; type: ADME, organism-based; conditions: read-out: Cmin
[10] = tested on: Homo sapiens; assay: Toxicity in healthy human assessed as occurrence of pollakiuria at 50 to 1200 mg, po administered as single dose; type: organism-based; conditions: in vivo
[11] = Half life in fed state healthy human at 1200 mg, po administered as single dose; type: ADME, organism-based; conditions: in vivo
[12] = Half life in healthy human at 800 mg, po qd after 1 day; type: ADME, organism-based; conditions: in vivo
[13] = Cmax in fasted state healthy human at 100 mg, po administered as single dose; type: ADME, organism-based; parameters: dose 100 mg, route oral; conditions: in vivo
[14] = Apparent total volume of distribution in healthy human at 800 mg, po qd after 1 day; type: ADME, organism-based; conditions: in vivo, read-out: Vz/F
[15] = Plasma concentration in fed state healthy human at 1200 mg, po administered as single dose after 24 hrs; type: ADME, organism-based
[16] = tested on: Human immunodeficiency virus 1; assay: Antiviral activity against HIV1; type: functional, organism-based
[17] = Half life in fasted state healthy human at 50 mg, po administered as single dose; type: ADME, organism-based; conditions: in vivo
[18] = Plasma concentration in fed state healthy human at 800 mg, po administered as single dose after 24 hrs; type: ADME, organism-based
[19] = Apparent total plasma clearance in fed state female healthy human at 400 mg, po administered as single dose; type: ADME, organism-based
[20] = Tmax in fed state healthy human at 800 mg, po administered as single dose; type: ADME, organism-based; conditions: in vivo
[21] = Apparent total plasma clearance in healthy human at 800 mg, po qd after 1 day; type: ADME, organism-based
[22] = tested on: Homo sapiens; assay: Toxicity in healthy human assessed as incidence of adverse events at 400 mg, po bid and 800 mg, po qd for 7 days; type: organism-based; conditions: in vivo, 168 h
[23] = Tmax in fed state female healthy human at 400 mg, po administered as single dose; type: ADME, organism-based; conditions: in vivo
[24] = Apparent total plasma clearance in healthy human at 800 mg, po qd after 7 days; type: ADME, organism-based
[25] = Apparent total volume of distribution in fasted state healthy human at 400 mg, po administered as single dose; type: ADME, organism-based; conditions: in vivo, read-out: Vz/F
[26] = Half life in fasted state healthy human at 200 mg, po administered as single dose; type: ADME, organism-based; conditions: in vivo
[27] = Cmax in healthy human at 400 mg, po bid after 1 day; type: ADME, organism-based; parameters: dose 400 mg, route oral; conditions: in vivo
[28] = Apparent total volume of distribution in healthy human at 400 mg, po bid after 7 days; type: ADME, organism-based; conditions: in vivo, read-out: Vz/F
[29] = Apparent total volume of distribution in fed state female healthy human at 400 mg, po administered as single dose; type: ADME, organism-based; conditions: in vivo, read-out: Vz/F
[30] = Plasma concentration in fasted state healthy human at 100 mg, po administered as single dose after 24 hrs; type: ADME, organism-based
[31] = Plasma concentration in fasted state healthy human at 200 mg, po administered as single dose after 24 hrs; type: ADME, organism-based
[32] = Apparent total plasma clearance in fasted state healthy human at 400 mg, po administered as single dose; type: ADME, organism-based
[33] = Plasma concentration in fasted state healthy human at 400 mg, po administered as single dose after 24 hrs; type: ADME, organism-based
[34] = Plasma concentration in fed state healthy human at 200 mg, po administered as single dose after 24 hrs; type: ADME, organism-based
[35] = Half life in fed state healthy human at 200 mg, po administered as single dose; type: ADME, organism-based; conditions: in vivo
[36] = Tmax in fed state healthy human at 400 mg, po administered as single dose; type: ADME, organism-based; conditions: in vivo
[37] = Trough plasma concentration in healthy human at 800 mg, po qd after 1 day; type: ADME, organism-based; conditions: read-out: Cmin
[38] = Cmax in fed state healthy human at 1200 mg, po administered as single dose; type: ADME, organism-based; parameters: dose 1200 mg, route oral; conditions: in vivo
[39] = Apparent total volume of distribution in fasted state healthy human at 50 mg, po administered as single dose; type: ADME, organism-based; conditions: in vivo, read-out: Vz/F
[40] = Tmax in fasted state healthy human at 200 mg, po administered as single dose; type: ADME, organism-based; conditions: in vivo
[41] = Tmax in healthy human at 400 mg, po bid after 7 days; type: ADME, organism-based; conditions: in vivo
[42] = Half life in healthy human at 400 mg, po bid after 7 days; type: ADME, organism-based; conditions: in vivo
[43] = Apparent total volume of distribution in fed state healthy human at 200 mg, po administered as single dose; type: ADME, organism-based; conditions: in vivo, read-out: Vz/F
[44] = Apparent total volume of distribution in healthy human at 800 mg, po qd after 7 days; type: ADME, organism-based; conditions: in vivo, read-out: Vz/F
[45] = Cmax in fasted state healthy human at 50 mg, po administered as single dose; type: ADME, organism-based; parameters: dose 50 mg, route oral; conditions: in vivo
[46] = AUC (0 to infinity) in fasted state healthy human at 100 mg, po administered as single dose; type: ADME, organism-based; parameters: dose 100 mg, time infinity, route oral; conditions: plasma
[47] = tested on: Homo sapiens; assay: Toxicity in healthy human assessed as incidence of pollakiuria at 400 mg, po bid and 800 mg, po qd for 7 days; type: organism-based; conditions: in vivo, 168 h
[48] = Apparent total plasma clearance in fed state healthy human at 400 mg, po administered as single dose; type: ADME, organism-based
[49] = tested on: Homo sapiens; assay: Toxicity in healthy human assessed as occurrence of abnormal dreams at 50 to 1200 mg, po administered as single dose; type: organism-based; conditions: in vivo
[50] = Half life in fasted state healthy human at 100 mg, po administered as single dose; type: ADME, organism-based; conditions: in vivo
[51] = Cmax in fed state healthy human at 200 mg, po administered as single dose; type: ADME, organism-based; parameters: dose 200 mg, route oral; conditions: in vivo

With COP(=O)(c1cc(C)cc(/C=C/C#N)c1)c1c(C(N)=O)[nH]c2ccc(Cl)cc12 (stereo unspecified) the AUC(0-inf) [1] was 36000 ng·h/mL, the CL/F [2] was 230 mL/min and the Activity [3] was 8.2%. The CL/F [4] was 118 mL/min, the concentration at 24 h [5] was 800 ng/mL and the Activity [6] was > 99.8%. It also gave a Cmax [7] of 4900 ng/mL, a half-life [8] of 13.9 h and a concentration at 168 h [9] of 2100 ng/mL. The Activity [10] was 0%, the half-life [11] was 7.9 h and the half-life [12] was 8.3 h. The Cmax [13] was 3000 ng/mL, the Vd/F [14] was 151 L and the concentration at 24 h [15] was 2020 ng/mL. For the same molecule, the IC50 [16] was 1.2 nM, the half-life [17] was 6.2 h and the concentration at 24 h [18] was 540 ng/mL. For the same molecule, the CL/F [19] was 268 mL/min, the Tmax [20] was 6 h and the CL/F [21] was 252 mL/min. For the same molecule, the Activity [22] was 43.8%, the Tmax [23] was 5 h and the CL/F [24] was 292 mL/min. For the same molecule, the Vd/F [25] was 606 L, the half-life [26] was 11.9 h and the Cmax [27] was 2000 ng/mL. The Vd/F [28] was 236 L, the Vd/F [29] was 329 L and the concentration at 24 h [30] was 90 ng/mL. It also gave a concentration at 24 h [31] of 70 ng/mL, a CL/F [32] of 480 mL/min and a concentration at 24 h [33] of 160 ng/mL. The concentration at 24 h [34] was 190 ng/mL, the half-life [35] was 9.5 h and the Tmax [36] was 7 h. It also gave a concentration at 24 h [37] of 900 ng/mL, a Cmax [38] of 5600 ng/mL and a Vd/F [39] of 53.3 L. For the same molecule, the Tmax [40] was 1.5 h, the Tmax [41] was 4 h and the half-life [42] was 12.3 h. The Vd/F [43] was 201 L, the Vd/F [44] was 366 L and the Cmax [45] was 1600 ng/mL. For the same molecule, the AUC(0-inf) [46] was 15800 ng·h/mL, the Activity [47] was 12.5% and the CL/F [48] was 215 mL/min. It also gave an Activity [49] of 2%, a half-life [50] of 6.8 h and a Cmax [51] of 1300 ng/mL.
